According to patent US6653081B2, “Methods for monitoring antiretroviral therapy and guiding therapeutic decision in the treatment of HIV/AIDS” (ViroLogic, Inc., priority 2000, dated 2003):

Key:
RTV-1033-3/184V = assay: Phenotypic susceptibility assay, RTV-1033-3/184V; format: cell-based, HIV; settings: RTV-1033-3 plus M184V
Excerpt: (§1) The resistance test vectors containing a functional luciferase gene cassette were constructed and host cells were transfected with the resistance test vector DNA. The resistant test vectors contained patient-derived reverse transcriptase and protease sequences that were either susceptible or resistant to the antiretroviral agents, such as nucleoside reverse transcriptase inhibitors, (NRTIs) non-nucleoside reverse transcriptase inhibitors […] protease inhibitors. The resistance test vector viral particles produced by transfecting the resistance test vector DNA into host cells, either in the presence or absence of PRIs, were used to infect target host cells grown either in the absence of NRTIs or NNRTIs, or in the presence of increasing concentrations of the drug. The amount of luciferase activity produced in infected target host cells in the presence of varying concentrations of drug was compared to the amount of luciferase produced in infected target host cells in the absence of drug. “Drug resistance” was measured as the amount of drug required to inhibit by 50% the luciferase activity detected in the absence of drug (inhibitory concentration 50%, IC50). The IC50 values were determined by plotting percent drug inhibition vs. log10 drug concentration. Stimulation of viral replication was measured as the percent increase in luciferase activity detected when infection occurs in the presence of drug as compared to in the absence of drug.
(§2) Host cells were seeded in 10-cm-diameter dishes and were transfected several days after plating with resistance test vector plasmid DNA and the envelope expression vector. Transfections were performed using a calcium-phosphate precipitation procedure. The cell culture media containing the DNA precipitate was replaced with fresh medium, from one to 24 hours, after transfection. Cell culture media containing resistance test vector viral particles was harvested one to four days after transfection and was passed through a […] filter before being used to infect target host cells, or being stored at −80° C. HIV capsid protein (p24) levels in the harvested cell culture media were determined by an EIA method as described by the manufacturer (SAIC; Frederick, Md.). Before infection, target cells (293 and 293/T) were plated in cell culture media. Control infections were performed using cell culture media from mock transfections (no DNA) or transfections containing the resistance test vector plasmid DNA without the envelope expression plasmid. One to three or more days after infection, the media was removed and cell lysis buffer (Promega) was added to each well. Cell lysates were assayed for luciferase activity (FIG. 3). The inhibitory effect of the drug was determined using the following equation:
(§3) % luciferase inhibition=1−(RLUluc[drug]÷RLUluc)×100
(§4) where RLUluc [drug] is the Relative Light Unit of luciferase activity in infected cells in the presence of drug, and RLUluc is the Relative Light Unit of luciferase activity in infected cells in the absence of drug. IC50values were obtained from the sigmoidal curves that were generated from the data by plotting the percent inhibition of luciferase activity vs. the log10 drug concentration. The percent luciferase stimulation is the negative of the % inhibition calculated using the formula above.
(§5) A resistance test vector containing all of the mutations present in RTV-1033-3 in addition to M184V (RTV-1033-3/184V) was constructed and tested using the phenotypic assay described earlier. The results were compared to those determined using the parent RTV-1033-3. We determined the pattern of phenotypic susceptibility to the NNRTIs, delavirdine, nevirapine and efavirenz, in the mutated vector, RTV-1033-3/184V.

RTV-006782 = assay: Phenotypic susceptibility assay, RTV-006782; format: cell-based, HIV; settings: patient 006782; for decrease in susceptibility: V245T, I135T, E138A
Excerpt: as §1, §2, §3, §4
(§6) A resistance test vector was constructed as described in Example 1 from a virus sample obtained from patient 006782. The prior and current treatment regimens are unknown. Isolation of viral RNA and RT/PCR was used to generate a patient derived segment (PDS) that comprised viral sequences coding for all of PR and aa 1-313 of RT. The PDS were inserted into an indicator gene viral vector to generate a resistance test vector designated RTV-006782. RTV-006782 was then tested in a phenotypic assay to determine accurately and quantitatively the level of susceptibility to a panel of anti-retroviral drugs. […]

RTV-014397 = assay: Phenotypic susceptibility assay, RTV-014397; format: cell-based, HIV; settings: patient 014397; for decrease in susceptibility: 245 and 103
Excerpt: as §1, §2, §3, §4
as §6, with “014397.” for “006782.”, “RTV-014397. RTV-014397” for “RTV-006782. RTV-006782”

[1] = test system: RTV-1033-3/106V/227F/286T; assay: Phenotypic susceptibility assay, RTV-1033-3/106V/227F/286T; format: cell-based, HIV; settings: RTV-1033-3 with V106A, F227L and T286A reverted
Excerpt: as §1, §2, §3, §4
as §5, with “except for V106A, F227L and T286A (RTV-1033-3/106V/227F/286T)” for “in addition to M184V (RTV-1033-3/184V)”, “reverted” for “mutated”, “RTV-1033-3/106V/227F/286T.” for “RTV-1033-3/184V.”

RTV-I135T = assay: Phenotypic susceptibility assay, RTV-I135T; format: cell-based, HIV-1; settings: site-directed I135T alone
Excerpt: as §1, §2, §3, §4
(§7) A resistance test vector containing a single mutation, I135T, (RTV-I135T) was constructed and tested in the phenotypic assay described earlier. The results were compared to those determined using a genetically defined resistance test vector that was wild type at position 135. We determined the pattern of phenotypic susceptibility to the NNRTIs, delavirdine, nevirapine and efavirenz, in RTV-I135T.

RTV-I135T/V245T = assay: Phenotypic susceptibility assay, RTV-I135T/V245T; format: cell-based, HIV-1; settings: site-directed I135T + V245T
Excerpt: as §1, §2, §3, §4
as §7, with “two mutations, I135T and V245T (RTV-I135T/V245T)” for “a single mutation, I135T, (RTV-I135T)”, “positions 135 and 245.” for “position 135.”, “RTV-I135T/V245T.” for “RTV-I135T.”

## CC(C)Nc1cccnc1N1CCN(C(=O)c2cc3cc(NS(C)(=O)=O)ccc3[nH]2)CC1 [delavirdine]
RTV-1033-3/184V
  drug-dependent stimulation of viral replication: ~100%
  reduction in susceptibility compared to wild type control RTV: 5 fold
RTV-006782
  drug-dependent stimulation of viral replication: ~70%
  decrease in susceptibility: 18.5 fold
RTV-014397
  drug-dependent stimulation of viral replication: ~100%
  decrease in susceptibility: > 250 fold
[1]
  drug-dependent stimulation of viral replication: ~60%
  reductions in susceptibility compared to wild type control RTV: 3 fold
RTV-I135T
  drug-dependent stimulation of viral replication: no drug-dependent stimulation
  reductions in susceptibility compared to wild type control RTV: no reductions
RTV-I135T/V245T
  drug-dependent stimulation of viral replication: ~10%
  reductions in susceptibility compared to wild type control RTV: 2.5 fold

## O=C1Nc2ccc(Cl)cc2[C@@](C#CC2CC2)(C(F)(F)F)O1 [efavirenz]
RTV-1033-3/184V
  drug-dependent stimulation of viral replication: ~80%
  reduction in susceptibility compared to wild type control RTV: 28 fold
RTV-006782
  drug-dependent stimulation of viral replication: ~25%
  decrease in susceptibility: 5 fold
RTV-014397
  drug-dependent stimulation of viral replication: ~70%
  decrease in susceptibility: > 450 fold
[1]
  drug-dependent stimulation of viral replication: ~50%
  reductions in susceptibility compared to wild type control RTV: 5 fold
RTV-I135T
  drug-dependent stimulation of viral replication: no drug-dependent stimulation
  reductions in susceptibility compared to wild type control RTV: no reductions
RTV-I135T/V245T
  drug-dependent stimulation of viral replication: no drug-dependent stimulation
  reductions in susceptibility compared to wild type control RTV: 2.4 fold

## Cc1ccnc2c1NC(=O)c1cccnc1N2C1CC1 [nevirapine]
RTV-1033-3/184V
  drug-dependent stimulation of viral replication: ~100%
  reduction in susceptibility compared to wild type control RTV: > 600 fold
RTV-006782
  drug-dependent stimulation of viral replication: ~60%
  decrease in susceptibility: 8 fold
RTV-014397
  drug-dependent stimulation of viral replication: ~100%
  decrease in susceptibility: > 600 fold
[1]
  drug-dependent stimulation of viral replication: ~70%
  reductions in susceptibility compared to wild type control RTV: 6 fold
RTV-I135T
  drug-dependent stimulation of viral replication: no drug-dependent stimulation
  reductions in susceptibility compared to wild type control RTV: no reductions
RTV-I135T/V245T
  drug-dependent stimulation of viral replication: ~10%
  reductions in susceptibility compared to wild type control RTV: 4 fold
